Here are results for 9 molecules from US8778935B2 (Centro Nacional de Investigaciones Oncologicas (CNIO), priority 2009, dated 2014).

Assay [1] addresses T1, PI3K (p110α/p85α) (Homo sapiens, UniProt P42336).
T1 construct: purchased Carna Biosciences 07CBS-0402A
In words: PI3K Activity Assay (ADP Hunter Plus). Conditions: read-out: PI3Kα IC50. Format: biochemical. The essentials:
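Kinase reaction with p110α/p85α ran 1 h at 25 °C; ADP formed was detected with ADP Hunter Plus reagents A and B after 30 min at 37 °C. Activity normalized to no-compound control and fitted to a sigmoid dose-response curve.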

In assay [2] the test system is phospho-Ser-473-Akt. In words: PI3K signalling: AKT phosphorylation inhibition, Western blot analysis. Format: cell-based. The conditions noted are these: Homo sapiens, cell assay, read-out: IC50 of AKT Phosphorylation Inhibition (p-AKT cell). On the procedure: Cell culture: The cell lines were obtained from the American Type Culture Collection (ATCC). U2OS (human osteosarcoma) was cultured in Dulbecco's modified Eagle's medium (DMEM). PC3 (human prostate carcinoma), MCF7 (human breast cardinoma), HCT116 (human colon carcinoma), […], U251 (human glyoblastoma) were grown in RPMI. All media were supplemented with 10% fetal bovine serum (FBS) (Sigma) and antibiotics-antimycotics. Cell were maintained in a humidified incubator at 37° C. with 5% CO2 and passaged when confluent using trypsin/EDTA.
AKT phosphorylation Inhibition. Western Blot Analysis: Subconfluent cells were incubated under different conditions and washed twice with TBS prior to lysis. Lysis buffer was added containing 50 mM Tris HCl, 150 mM NaCl, 1% NP-40, 2 mM Na3VO4, 100 mM NaF, 20 mM Na4P2O7 and protease inhibitor cocktail (Roche Molecular Biochemicals). The proteins were resolved on 10% SDS-PAGE and transferred to nitrocellulose membrane (Schleicher & Schuell, Dassel, Germany). The membranes were incubated overnight at 4° C. with antibodies specific for Akt, phospho-Ser-473-Akt (Cell Signaling Technology) and α-tubulin (Sigma), they were washed and then incubated with IRDye800 conjugated anti-mouse and Alexa Fluor 680 goat anti-rabbit IgG secondary antibodies. The bands were visualized using an Odyssey infrared imaging system (Li-Cor Biosciences).

Setting [3] is: PI3Kα activity, quantitative results.
Where [4] appears, read: quantitative results of Table 4.

Like-named read-outs stand apart in the source and are kept apart here.

T1 sequence (P42336 whole entry): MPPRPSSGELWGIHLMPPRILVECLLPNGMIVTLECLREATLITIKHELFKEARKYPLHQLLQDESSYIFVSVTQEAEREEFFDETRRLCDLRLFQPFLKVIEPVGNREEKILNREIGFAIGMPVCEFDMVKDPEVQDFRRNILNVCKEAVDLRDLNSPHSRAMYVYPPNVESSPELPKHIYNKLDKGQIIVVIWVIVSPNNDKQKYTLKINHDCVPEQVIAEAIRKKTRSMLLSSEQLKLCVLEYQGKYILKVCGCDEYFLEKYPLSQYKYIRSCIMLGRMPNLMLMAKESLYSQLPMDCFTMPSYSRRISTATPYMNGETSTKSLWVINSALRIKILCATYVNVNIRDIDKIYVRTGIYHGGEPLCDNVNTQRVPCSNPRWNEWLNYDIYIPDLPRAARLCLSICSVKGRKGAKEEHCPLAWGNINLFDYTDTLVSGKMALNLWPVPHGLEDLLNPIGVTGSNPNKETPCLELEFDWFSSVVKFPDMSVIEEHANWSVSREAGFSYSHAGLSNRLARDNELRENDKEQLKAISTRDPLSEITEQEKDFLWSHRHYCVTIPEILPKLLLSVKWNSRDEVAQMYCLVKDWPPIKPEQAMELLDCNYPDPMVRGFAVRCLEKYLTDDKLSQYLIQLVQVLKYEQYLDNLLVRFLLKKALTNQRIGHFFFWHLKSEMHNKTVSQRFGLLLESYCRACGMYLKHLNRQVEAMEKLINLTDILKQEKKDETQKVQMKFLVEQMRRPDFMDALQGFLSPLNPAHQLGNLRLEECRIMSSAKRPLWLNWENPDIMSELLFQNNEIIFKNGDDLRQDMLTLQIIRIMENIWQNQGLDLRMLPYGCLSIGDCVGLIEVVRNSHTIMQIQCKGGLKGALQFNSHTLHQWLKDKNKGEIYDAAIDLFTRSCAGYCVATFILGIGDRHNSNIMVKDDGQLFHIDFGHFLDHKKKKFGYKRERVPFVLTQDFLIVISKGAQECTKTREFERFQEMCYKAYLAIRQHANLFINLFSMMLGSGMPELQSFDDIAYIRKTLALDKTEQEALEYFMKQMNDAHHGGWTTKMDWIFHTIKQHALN
T1 sequence (P27986 whole entry partner): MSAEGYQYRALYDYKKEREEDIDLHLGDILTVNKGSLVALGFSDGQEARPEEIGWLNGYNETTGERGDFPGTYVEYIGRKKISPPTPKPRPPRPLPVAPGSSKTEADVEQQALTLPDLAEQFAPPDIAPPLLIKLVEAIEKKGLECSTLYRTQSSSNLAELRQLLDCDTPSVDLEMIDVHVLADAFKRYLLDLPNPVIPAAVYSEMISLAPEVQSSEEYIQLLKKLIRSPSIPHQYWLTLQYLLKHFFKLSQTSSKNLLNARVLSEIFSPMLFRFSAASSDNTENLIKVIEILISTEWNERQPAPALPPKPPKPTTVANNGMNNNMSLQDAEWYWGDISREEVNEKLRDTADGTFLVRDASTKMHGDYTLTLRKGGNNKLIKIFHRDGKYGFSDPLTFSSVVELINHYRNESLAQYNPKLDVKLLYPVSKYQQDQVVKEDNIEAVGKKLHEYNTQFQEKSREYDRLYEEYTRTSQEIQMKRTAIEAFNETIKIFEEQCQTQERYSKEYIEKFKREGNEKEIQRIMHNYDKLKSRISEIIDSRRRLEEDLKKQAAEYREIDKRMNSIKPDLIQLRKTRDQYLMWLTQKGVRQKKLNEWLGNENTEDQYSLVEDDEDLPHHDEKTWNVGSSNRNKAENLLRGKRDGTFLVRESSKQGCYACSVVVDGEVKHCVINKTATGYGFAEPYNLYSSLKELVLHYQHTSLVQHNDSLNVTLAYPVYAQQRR

For `CC(C)CS(=O)(=O)N1CCN(Cc2cn3cc(-c4cnc(N)nc4)nc(N4CCOCC4)c3n2)CC1` [2-221], the figures for the IC50 in assay [1] (setting [3]) and in assay [2] were 11 nM and 135 nM, respectively.
In the same order, the values of `Nc1ncc(-c2cn3cc(CN4CCS(=O)(=O)CC4)nc3c(N3CCOCC3)n2)cn1` [2-222] are 82 nM and 95 nM.
On to `O=C(NCCN1CCOCC1)c1cn2cc(-c3cccc4[nH]ncc34)nc(N3CCOCC3)c2n1` [2-142], for which the IC50 was determined as 38 nM in assay [1] (setting [4]) and 116 nM in assay [2].
Regarding `Nc1ncc(-c2cn3cc(C4CC4)nc3c(N3CCOCC3)n2)cn1` [2-171], the values for the 50% inhibitory concentration (IC50) in assay [1] (setting [3]) and in assay [2] were 50 nM and 379 nM, respectively.
Turning to `COCCNC(=O)c1cn2cc(-c3cccnc3)nc(N3CCOCC3)c2n1` [2-154], the IC50 in assay [1] (setting [4]) was 166 nM; in assay [2] it was 1050 nM.
In the same order, the values of `NC(=O)c1cn2cc(-c3cccnc3)nc(N3CCCCC3)c2n1` [2-119] are 93 nM and 87 nM.
In the case of `CCOC(=O)N1CCC(NC(=O)c2cn3cc(-c4cnc(N)nc4)nc(N4CCOCC4)c3n2)CC1` [2-188], the IC50 in assay [1] (setting [3]) is 3 nM; in assay [2], 60 nM.
Regarding `CS(=O)(=O)N1CCN(C(=O)c2cn3cc(-c4cccc5[nH]ncc45)nc(N4CCOCC4)c3n2)CC1` [2-16, (6-(1H-indazol-4-yl)-8-morpholinoimidazo[1,2-a]pyrazin-2-yl)(4-sulfonylmethyl-piperazin-1-yl)methanone], the half-inhibitory concentration (IC50) is 254 nM in assay [1] (quantitative results) and 503 nM in assay [2].
As for `Nc1ncc(-c2cn3cc(C(F)(F)F)nc3c(N3CCOCC3)n2)cn1` [2-172], the IC50 in assay [1] (setting [3]) was determined as 32 nM; in assay [2], 149 nM.
